Reference: patent publication US10857113B2, “Bezafibrate for the treatment of cancer” (Cipla Limited, priority 2016, dated 2020)
pIC50: −log10 of the molar value. Read-outs that look alike come from different tables or passages of the source.

Experiments:
ACHN = test: In vitro 3D clonogenic assay; type: cell-based; settings: Homo sapiens, 3D model, colony formation, 8 to 13 days continuous exposure, read-out: Relative IC50
Experimental: (§1) Cell lines were routinely passaged one or twice weekly. All cells were grown at 37° C. in a humidified atmosphere with 5% CO2 in RPMI 1640 medium (Biochrom) supplemented with 10% (v/v) fetal calf serum and 0.1 mg/mL gentamicin. The percentage of viable cells was determined in a Neubauer-hemocytometer using trypan blue exclusion.
(§2) Tumor xenografts (patient-derived, as well as cell line-derived xenografts) were passaged as subcutaneous xenografts in NMRI nu/nu mice. At a tumor volume of 400-1,000 mm^3 tumor-bearing mice were sacrificed and tumors were collected under sterile conditions without delay according to the relevant Oncotest SOPs and the relevant animal welfare guidelines published by the FELASA and the GV-SOLAS. Tumors were mechanically disaggregated and subsequently incubated with an enzyme cocktail consisting of collagenase type IV (41 U/mL), DNase I (125 U/mL), hyaluronidase type III (100 U/mL), and dispase II (1.0 U/mL) in RPMI 1640 medium (Life Technologies) at 37° C. for 60-120 minutes. Cells were passed through sieves of 100 μm and 40 μm mesh size (Cell Strainer, BD Falcon™), and washed with RPMI 1640 medium. The percentage of viable cells was determined in a Neubauer-hemocytometer using trypan blue exclusion. Aliquots of the cells were frozen down, and stored in liquid nitrogen. On each day of an experiment, a frozen aliquot of tumor cells was thawed and used for preparation of assay plates.
(§3) The clonogenic assay was carried out in a 96 well plate format using ultra low attachment plates. For each test, cells were prepared as described above and assay plates were prepared as follows: each test well contained a layer of semi-solid medium with tumor cells (50 and a second layer of medium supernatant with or without test compound (100 The cell layer consisted of 2.5·10^3 to 1·10^4 tumor cells per well, which were seeded in 50 μL/well cell culture medium (IMDM, supplemented with 20% (v/v) fetal calf serum, 0.01% (w/v) gentamicin, and 0.4% (w/v) agar). After 24 hours the test compounds were added after serial dilution in cell culture medium, and left on the cells for the duration of the experiment (continuous exposure, 100 μl drug overlay). Every plate included six untreated control wells and drug-treated groups in duplicate at 9 concentrations. Cultures were incubated at 37° C. and 7.5% CO2 in a humidified atmosphere for 8 to 13 days and monitored closely for colony growth using an inverted microscope. Within this period, ex vivo tumor growth led to the formation of colonies with a diameter of >50 μm. At the time of maximum colony formation, counts were performed with an automatic image analysis system (CellInsight NXT, Thermo Scientific). 48 hours prior to evaluation, vital colonies were stained with a sterile aqueous solution of 2-(4-iodophenyl)-3-(4-nitrophenyl)-5-phenyltetrazolium chloride (1 mg/ml, 100 μl/well).

Caki-1 = test: In vitro 3D clonogenic assay; type: cell-based; settings: Homo sapiens, 3D model, colony formation, 8 to 13 days continuous exposure
Experimental: as §1, §2, §3

RXF 1183L = test: In vitro 3D clonogenic assay; type: cell-based; settings: Homo sapiens, 3D model, colony formation, 8 to 13 days continuous exposure
Experimental: as §1, §2, §3

RXF 1220L = test: In vitro 3D clonogenic assay; type: cell-based; settings: Homo sapiens, 3D model, colony formation, 8 to 13 days continuous exposure
Experimental: as §1, §2, §3

RXF 1781L = test: In vitro 3D clonogenic assay; type: cell-based; settings: Homo sapiens, 3D model, colony formation, 8 to 13 days continuous exposure
Experimental: as §1, §2, §3

RXF 393L = test: In vitro 3D clonogenic assay; type: cell-based; settings: Homo sapiens, 3D model, colony formation, 8 to 13 days continuous exposure
Experimental: as §1, §2, §3

RXF 486L = test: In vitro 3D clonogenic assay; type: cell-based; settings: Homo sapiens, 3D model, colony formation, 8 to 13 days continuous exposure
Experimental: as §1, §2, §3

SN12C = test: In vitro 3D clonogenic assay; type: cell-based; settings: Homo sapiens, 3D model, colony formation, 8 to 13 days continuous exposure
Experimental: as §1, §2, §3

[1] = system: human tumor cell models for RCC; test: In vitro 3D clonogenic assay, all tumor models; type: cell-based; settings: 3D model, geometric mean over 10 tumor models
Experimental: as §1
as §2, with “Cells were passed through sieves of 100 μm and 40 μm mesh size (Cell Strainer, BD Falcon™), and washed with RPMI 1640 medium.” left out, “Aliquots of the cells were frozen down, and stored in liquid nitrogen. On each day of an experiment, a frozen aliquot of tumor cells was thawed and used for preparation of assay plates.” left out
The clonogenic assay was carried out in a 96 well plate format using ultra low attachment plates. […] Cultures were incubated at 37° C. and 7.5% CO2 in a humidified atmosphere for 8 to 13 days and monitored closely for colony growth using an inverted microscope. […]

A498 cells = test: In vivo animal efficacy study, subcutaneous tumor fragment xenograft; parameters: species or system female athymic nude mice; settings: sunitinib 20 mg/kg, bezafibrate 150 mg/kg, p.o. q.d. × 21
Experimental: Healthy 10 female athymic nude mice were recruited for the donor cell inoculation. Animals were subcutaneously injected at flank region with 10 million A498 cells suspended in 200 μl of media and matrigel. Animals were monitored for solid tumor growth. […] Tumors were fragmented in to ˜30 mg size. […] [table] The tumor sizes were measured weekly twice from the date of tumor appearance till the end of the experiment. Tumor size was measured by digital vernier caliper (MITUTOYO) by measuring length (L=longest axis) and width (W=shortest axis). Tumor Volume (V) was calculated using formula: […] Mean tumor volume and % tumor growth inhibition (% TGI) were then calculated (SEM=standard error of mean).

[2] = background statement; cited from earlier work
[3] = background statement; cited from earlier work; remark: listed apart in the source

pIC50 (ACHN): 2.98
pIC50 (Caki-1; read-out: Absolute IC50): 2.89
pIC50 (Caki-1; read-out: Relative IC50): 2.89
pIC50 (RXF 1183L; read-out: Absolute IC50): 3.22
pIC50 (RXF 1183L; read-out: Relative IC50): 3.15
pIC50 (RXF 1220L; read-out: Absolute IC50): 2.93
pIC50 (RXF 1220L; read-out: Relative IC50): 2.91
pIC50 (RXF 1781L; read-out: Absolute IC50): 2.99
pIC50 (RXF 1781L; read-out: Relative IC50): 2.96
pIC50 (RXF 393L; read-out: Absolute IC50): 2.90
pIC50 (RXF 393L; read-out: Relative IC50): 2.89
pIC50 (RXF 486L; read-out: Absolute IC50): 3.00
pIC50 (RXF 486L; read-out: Relative IC50): 3.02
pIC50 (SN12C; read-out: Absolute IC50): 3.33
pIC50 (SN12C; read-out: Relative IC50): 3.33
pIC50 ([1]; read-out: Geometric mean absolute IC50): 3.02
pIC50 ([1]; read-out: Geometric mean relative IC50): 3.01
Structure (SMILES): CC(C)(Oc1ccc(CCNC(=O)c2ccc(Cl)cc2)cc1)C(=O)O [Bezafibrate]
Tumor Growth Inhibition (A498 cells; Day 1): 0.44%
Tumor Volume, Mean (A498 cells; Day 1): 146.92 mm^3
Tumor Volume, Mean (A498 cells; Day 6): 198.50 mm^3
Tumor Growth Inhibition (A498 cells; Day 9): 21.70%
Tumor Volume, Mean (A498 cells; Day 9): 363.14 mm^3
Tumor Growth Inhibition (A498 cells; Day 13): 24.92%
Tumor Volume, Mean (A498 cells; Day 13): 463.30 mm^3
Tumor Growth Inhibition (A498 cells; Day 16): 26.18%
Tumor Volume, Mean (A498 cells; Day 16): 709.65 mm^3
Tumor Growth Inhibition (A498 cells; Day 20): 31.59%
Tumor Volume, Mean (A498 cells; Day 20): 875.99 mm^3
Anti-tumor efficacy / effect in inhibiting tumor growth (in words) (A498 cells): shows anti-tumor efficacy
Reduction of low-density lipoprotein cholesterol (LDL-C) [2]: 15-20%
Reduction of triglycerides [2]: 30-50%
Absorption following oral administration [3]: well absorbed
